Experimental data taken from PubChem BioAssay (NCI).
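Method: 48-hour compound exposure of cells in 96-well plates, five concentrations, linear interpolation of endpoints. TGI: total growth inhibition.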 Where a SMILES comes first, the peptide text is derived from it. Bridges are numbered along the chain shown (N, C = ends). [ ]: non-standard residue; d: D form. Aib = CC(C)(N)C(=O)O; βAla = NCCC(=O)O

How the values were obtained:
Test in all cases: growth of human tumour cells (NCI), 48 h
A498 renal = test system: A498 renal
BT-549 breast = test system: BT-549 breast
DU-145 prostate = test system: DU-145 prostate
HCT-15 colon = test system: HCT-15 colon
LOX IMVI melanoma = test system: LOX IMVI melanoma
MDA-N = test system: MDA-N
MOLT-4 leukemia = test system: MOLT-4 leukemia
OVCAR-4 ovarian = test system: OVCAR-4 ovarian
OVCAR-5 ovarian = test system: OVCAR-5 ovarian
OVCAR-8 ovarian = test system: OVCAR-8 ovarian
PC-3 prostate = test system: PC-3 prostate
RPMI-8226 leukemia = test system: RPMI-8226 leukemia
RXF 393 renal = test system: RXF 393 renal
SF-268 CNS = test system: SF-268 CNS
SK-OV-3 ovarian = test system: SK-OV-3 ovarian
SN12C renal = test system: SN12C renal
SW-620 colon = test system: SW-620 colon
UACC-257 melanoma = test system: UACC-257 melanoma

Compound	TGI (A498 renal) [µM]	TGI (BT-549 breast) [µM]	TGI (DU-145 prostate) [µM]	TGI (HCT-15 colon) [µM]	TGI (LOX IMVI melanoma) [µM]	TGI (MDA-N) [µM]	TGI (MOLT-4 leukemia) [µM]	TGI (OVCAR-4 ovarian) [µM]	TGI (OVCAR-5 ovarian) [µM]	TGI (OVCAR-8 ovarian) [µM]	TGI (PC-3 prostate) [µM]	TGI (RPMI-8226 leukemia) [µM]	TGI (RXF 393 renal) [µM]	TGI (SF-268 CNS) [µM]	TGI (SK-OV-3 ovarian) [µM]	TGI (SN12C renal) [µM]	TGI (SW-620 colon) [µM]	TGI (UACC-257 melanoma) [µM]
C=CCN(c1cc(OC)c(NC(C)=O)cc1[N+](=O)[O-])S(C)(=O)=O	> 100	> 100	> 100	> 100	> 100	> 100	> 100	> 100	> 100	> 100	> 100	> 100	> 100	> 100	> 100	> 100	> 100	> 100
C[C@H](C1CC(C)(O)C(C)(O)C(O)O1)[C@H]1CC[C@H]2[C@@H]3[C@@H]4O[C@@H]4[C@@]4(O)CC=CC(=O)[C@]4(C)[C@H]3CC[C@]12C (some centres undefined)	> 50	> 50	> 50	> 50	> 50	> 50	> 50	> 50	> 50	> 50	> 50	> 50	> 50	> 50	> 50	> 50	> 50	> 50
Cc1ccc(C)n1-c1ccccc1C1C=Cn2c(=O)nnc3c(OC(C)C)c(OC(C)C)c(O)c1c32 (centres undefined)	> 100	> 100	> 100	60.4	> 100	> 100	56.5	> 100	> 100	> 100	> 100	42.4	77.3	> 100	> 100	> 100	42.3	> 100
O=C1NC2c3c(I)sc(I)c3C(=O)C2O1 (centres undefined)	22.4	15.9	31	3.63	5.15	9.16	> 38.5	23	28.3	9.27	19	34.1	12.7	21.5	31.5	51.5	9.76	12.2
CCOC(=O)c1cc(C2CCN(c3ccccc3)C2=O)c(/C(O)=C/C(C)=O)[nH]1 (centres undefined)	> 100	> 100	> 100	> 100	> 100	> 100	> 100	> 100	> 100	> 100	> 100	> 100	55.6	> 100	> 100	> 100	> 100	> 100
Cc1c2ccccc2c(C2C3C(=O)N(c4ccc(Br)cc4)C(=O)C3ON2C(C(N)=O)c2ccccc2)c2ccccc12 (centres undefined)	11.7	43.4	26.7	18.7	18.6	35.1	> 100	> 100	23.2	48	> 100	4.63	37.3	> 100	46	53.5	> 100	62.4
CN1C(=O)C2(C)SC1(c1ccccc1)C1C(=O)N(c3ccccc3)C(=O)C12 (centres undefined)	> 100	> 100	> 100	> 100	> 100	> 100	> 100	> 100	> 100	> 100	> 100	> 100	> 100	> 100	> 100	> 100	> 100	93.3
CCOc1cc(C2CC(c3ccc(NS(=O)(=O)c4cc([N+](=O)[O-])ccc4C)cc3)=NN2S(=O)(=O)c2cc([N+](=O)[O-])ccc2C)ccc1O (centres undefined)	22	> 100	> 100	> 100	> 100	> 100	> 100	> 100	> 100	> 100	> 100	> 100	70.7	> 100	> 100	81.3	> 100	> 100
O=c1ccc2ccc(OP(=O)(O)O)cc2o1	> 100	> 100	> 100	> 100	> 100	> 100	> 100	> 100	> 100	> 100	> 100	> 100	> 100	> 100	> 100	> 100	> 100	> 100
O=C(Nc1ccccc1)c1cc(S(=O)(=O)Nc2n[nH]c(=O)n2-c2ccccc2)c(S)cc1Cl	> 100	> 100	> 100	> 100	> 100	> 100	> 100	> 100	> 100	> 100	> 100	> 100	> 100	> 100	> 100	> 100	> 100	> 100
O=C(C=P(c1ccccc1)(c1ccccc1)c1ccccc1)c1ccc(-c2cccs2)cc1	10.8	40.7	22.3	24.7	19.6	11.7	4.7	7.52	17.7	17.8	15.7	5.07	15.4	27.1	20.6	17.6	21.7	6.35
O=C1C2C(C(=O)N1c1ccccc1)C1(c3ccccc3)CCC2(C(=O)c2ccccc2)O1 (centres undefined)	> 10	> 10	> 10	> 10	> 10	> 10	> 10	> 10	> 10	> 10	> 10	> 10	> 10	> 10	> 10	> 10	> 10	> 10
CN=C1Nc2ccccc2C(=O)N2CSCC12 (centres undefined)	> 100	> 100	> 100	> 100	> 100	> 100	> 100	> 100	> 100	> 100	> 100	> 100	> 100	> 100	> 100	> 100	> 100	> 100
CC(=O)NC1C(OC(C)C(=O)NC(C)C(=O)NC(CCC(=O)NCCCCCNc2ccc([N+](=O)[O-])c3[nH]c4ccccc4c(=O)c23)C(N)=O)C(O)C(CO)OC1(C)OCc1ccccc1 (centres undefined)	> 100	> 100	> 100	> 100	> 100	> 100	> 100	> 100	> 100	> 100	> 100	70.1	> 100	> 100	> 100	> 100	> 100	> 100
CC1(C)NC(=O)C(NC(=O)C(N)CC(=O)O)CCCCNC(=O)CCNC1=O (centres undefined) (H-DK[Aib][βAla]; lactam 2-C; configuration not given here)	> 100	> 100	> 100	> 100	> 100	> 100	> 100	> 100	> 100	> 100	> 100	> 100	> 100	> 100	> 100	–	> 100	> 100
Cc1ccc2c(c1)C(=C(C#N)C#N)CCCS2(=O)=O	> 100	> 100	> 100	> 100	> 100	> 100	> 100	> 100	> 100	> 100	> 100	> 100	> 100	> 100	> 100	> 100	> 100	> 100
NC1N=C(c2ccc(Cl)cc2)C2=C(N1)c1ccccc1CC2 (centres undefined)	> 100	> 100	> 100	> 100	> 50.9	> 100	> 31.4	88.2	> 100	> 100	> 100	12.2	50.1	> 100	> 100	> 100	> 78.4	> 100
CC(=O)c1nc2ccccc2n1C(C)C(=O)c1ccccc1 (centres undefined)	> 100	> 100	> 100	> 100	> 100	> 100	> 100	> 100	–	> 100	> 100	> 100	> 100	> 100	> 100	> 100	> 100	> 100
CC1=C(C(=O)OC2CC3CCC2(C)C3(C)C)C2Nc3ccccc3N(C)C2O1 (centres undefined)	18.9	6.43	2.79	5.6	6.12	3.55	6.69	–	25.9	9.02	12.3	6.78	18.5	22.5	14.5	4.25	6.99	3.3
